Compound in this assay: COc1cc(Nc2c(C#N)cnc3cc(OCCCN4CCN(C)CC4)c(OC)cc23)c(Cl)cc1Cl [Bosutinib]
Put plainly: relative viability (nuclei count vs DMSO), 5 days (fraction); higher = more cells survive. The essentials: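 Cells of lung cancer lines were placed in 1536-well plates and kept overnight at 37 °C. Pinning then delivered five library-drug doses (not always all listed), spaced by √10, onto plates anchored with vehicle, and the cells were left 5 days without changing medium. One step fixed, permeabilised and stained them with Hoechst, and MetaXpress counted nuclei in 4× images. Viability, as a median over plates, is treated-well nuclei divided by vehicle-well nuclei, with acceptance only at control CV below 25% and at least one doubling.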

Turning to NCI-H727, the relative viability by setting is: (0.01 µM) 0.911; (0.03162 µM) 0.929; (0.1 µM) 0.985; (1 µM) 0.632.

Regarding NCI-H838, the relative viability reads like this: (0.01 µM) 0.975; (0.03162 µM) 0.942; (0.1 µM) 0.953; (1 µM) 0.693.

Consider NCI-H1355, for which the relative viability runs as follows: (0.01 µM) 0.999; (0.03162 µM) 1.03; (0.1 µM) 1.05; (1 µM) 0.931.

On to NCI-H1395, for which the relative viability is 0.932 (0.01 µM), 0.914 (0.03162 µM), 1.01 (0.1 µM) and 0.817 (1 µM).

NCI-H1437: the relative viability reads like this: (0.01 µM) 1.03; (0.03162 µM) 0.974; (0.1 µM) 1.02; (1 µM) 0.912.

NCI-H1563: the relative viability reads like this: (0.01 µM) 1.05; (0.03162 µM) 0.906; (0.1 µM) 0.928; (1 µM) 0.713.

Turning to NCI-H1650, the relative viability runs as follows: (0.01 µM) 1.01; (0.03162 µM) 0.846; (0.1 µM) 0.778; (1 µM) 0.783.

As to NCI-H1651, the relative viability is, setting by setting: (0.01 µM) 0.997; (0.03162 µM) 0.966; (0.1 µM) 1.03; (1 µM) 0.988.

For NCI-H1666, the relative viability came to 0.988 (0.01 µM), 1.04 (0.03162 µM), 0.924 (0.1 µM) and 1.02 (1 µM).

On to NCI-H1703, for which the relative viability runs as follows: (0.01 µM) 0.869; (0.03162 µM) 0.972; (0.1 µM) 0.835; (1 µM) 0.468.

Turning to NCI-H1734, the relative viability is, setting by setting: (0.01 µM) 1.06; (0.03162 µM) 1.01; (0.1 µM) 0.965; (1 µM) 0.892.

Turning to NCI-H1755, the relative viability by setting is: (0.01 µM) 1.01; (0.03162 µM) 1.09; (0.1 µM) 1.03; (1 µM) 0.951.

On to NCI-H1792, for which the relative viability (0.01 µM) amounted to 0.822, the relative viability (0.03162 µM) was 1.08, the relative viability (0.1 µM) turned out to be 0.993 and the relative viability (1 µM) came out at 0.84.

On to NCI-H1793, for which the relative viability (0.01 µM) was 0.916, the relative viability (0.03162 µM) is 0.84, the relative viability (0.1 µM) worked out at 0.791 and the relative viability (1 µM) was 0.588.

On to NCI-H1915, for which the relative viability was found to be 0.989 (0.01 µM), 1.09 (0.03162 µM), 1.1 (0.1 µM) and 1.01 (1 µM).

As for NCI-H1944, the relative viability reads like this: (0.01 µM) 0.965; (0.03162 µM) 0.92; (0.1 µM) 0.913; (1 µM) 0.888.

Turning to NCI-H1975, the relative viability by setting is: (0.01 µM) 0.992; (0.03162 µM) 0.958; (0.1 µM) 0.966; (1 µM) 0.81.

As for NCI-H1993, the relative viability reads like this: (0.01 µM) 0.977; (0.03162 µM) 0.9; (0.1 µM) 0.987; (1 µM) 0.936.

For NCI-H2009, the relative viability reads like this: (0.01 µM) 1.07; (0.03162 µM) 1.05; (0.1 µM) 1.06; (1 µM) 0.865.

On to NCI-H2023, for which the relative viability was determined as 1.02 (0.01 µM), 0.943 (0.03162 µM), 0.948 (0.1 µM) and 0.852 (1 µM).

Regarding NCI-H2085, the relative viability stood at 0.969 (0.01 µM), 0.938 (0.03162 µM), 0.919 (0.1 µM) and 0.928 (1 µM).

NCI-H2087: the relative viability reads like this: (0.01 µM) 1.07; (0.03162 µM) 1.04; (0.1 µM) 0.951; (1 µM) 1.08.

With NCI-H2126, the relative viability reads like this: (0.01 µM) 0.972; (0.03162 µM) 0.997; (0.1 µM) 0.969; (1 µM) 0.994.

In the case of NCI-H2170, the relative viability reads like this: (0.01 µM) 1.01; (0.03162 µM) 0.974; (0.1 µM) 1.01; (1 µM) 0.926.

As for NCI-H2228, the relative viability runs as follows: (0.01 µM) 0.906; (0.03162 µM) 0.918; (0.1 µM) 0.989; (1 µM) 0.882.

Take NCI-H2342: the relative viability turned out to be 0.961 (0.01 µM), 0.99 (0.03162 µM), 0.926 (0.1 µM) and 1.21 (1 µM).

On to NCI-H2347, for which the relative viability turned out to be 1.03 (0.01 µM), 1.09 (0.03162 µM), 0.992 (0.1 µM) and 1.06 (1 µM).

As for NCI-H2405, the relative viability is, setting by setting: (0.01 µM) 1.05; (0.03162 µM) 1.1; (0.1 µM) 1.03; (1 µM) 0.801.

With NCI-H3122, the relative viability by setting is: (0.01 µM) 1.02; (0.03162 µM) 1.02; (0.1 µM) 1.01; (1 µM) 0.993.

PC-3 [JPC-3]: the relative viability by setting is: (0.01 µM) 1.04; (0.03162 µM) 1.07; (0.1 µM) 1.06; (1 µM) 0.745.

As to PC-14, the relative viability reads like this: (0.01 µM) 1.03; (0.03162 µM) 0.977; (0.1 µM) 0.871; (1 µM) 0.336.

Consider RERF-LC-KJ, for which the relative viability is, setting by setting: (0.01 µM) 0.997; (0.03162 µM) 0.971; (0.1 µM) 0.978; (1 µM) 0.948.

As for SK-LU-1, the relative viability by setting is: (0.01 µM) 0.995; (0.03162 µM) 1.06; (0.1 µM) 1.05; (1 µM) 0.629.

Turning to SK-MES-1, the relative viability was determined as 1.02 (0.01 µM), 1.01 (0.03162 µM), 1.01 (0.1 µM) and 0.815 (1 µM).

SW 900: the relative viability was 0.856 (0.01 µM), 0.706 (0.03162 µM), 0.801 (0.1 µM) and 0.815 (1 µM).

Consider SW 1573, for which the relative viability is, setting by setting: (0.01 µM) 1.05; (0.03162 µM) 1.02; (0.1 µM) 0.941; (1 µM) 0.924.

As for UMC-11, the relative viability (0.01 µM) was determined as 1, the relative viability (0.03162 µM) is 1.01, the relative viability (0.1 µM) turned out to be 0.956 and the relative viability (1 µM) stood at 0.912.

Values taken from the supplement of paper PMC10307832.
